Data as given in patent US6919425B2, “Isolation of a cell-specific internalizing peptide that infiltrates tumor tissue for targeted drug delivery” (Board of Regents, The University of Texas System, priority 2000, dated 2005).
Entries after “also recorded” stand apart in the source; their conditions may differ. Starred links: 1 amine or outer side, 2 acyl side, 3 side chain; linkers in the order of their positions; H or OH if unused. Positions of bridges follow the written chain, without caps; N, C: chain ends. Non-standard residues stand in square brackets, D forms with d. Residues, ends and D or L forms follow the SMILES beside them. Chains are numbered I, II in the order given. Actinocin(9to1) = Cc1c2oc3c(C)ccc(C(=O)[*:1])c3nc-2c(C(=O)[*:2])c(N)c1=O; NMeV = CN[C@H](C(=O)O)C(C)C; Sar = CNCC(=O)O

Experiments:
[1] = cited from earlier work
[2] = Toxicity, immunogenicity and stability in HN-1 injected mice; assay type: in vivo
[3] = test system: MDA177Tu cells
[4] = mouse, in vivo; cited from earlier work

With `Cc1c2oc3c(C)ccc(C(=O)N[C@@H]4C(=O)N[C@H](C(C)C)C(=O)N5CCC[C@H]5C(=O)N(C)CC(=O)N(C)[C@@H](C(C)C)C(=O)O[C@@H]4C)c3nc-2c(C(=O)N[C@@H]2C(=O)N[C@H](C(C)C)C(=O)N3CCC[C@H]3C(=O)N(C)CC(=O)N(C)[C@@H](C(C)C)C(=O)O[C@@H]2C)c(N)c1=O` [Actinomycin D] (I: T[dV]P[Sar][NMeV] / II: T[dV]P[Sar][NMeV]; ester I:1-I:C, II:1-II:C; linker I:N-II:N via Actinocin(9to1)) as the molecule, how does the “dose excreted / detected intact in the urine” value ([1]; in vivo) read?
The value was 10%.

Which toxicity ([2]; histology of organs of injected mice) does the source give for `CC[C@H](C)[C@H](NC(=O)[C@H](CC(N)=O)NC(=O)[C@H](CC(C)C)NC(=O)[C@@H]1CCCN1C(=O)[C@H](CO)NC(=O)[C@@H](N)[C@@H](C)O)C(=O)N[C@@H](Cc1c[nH]cn1)C(=O)N[C@@H](CC(N)=O)C(=O)NCC(=O)N[C@@H](CCC(N)=O)C(=O)N[C@@H](CCCCN)C(=O)N[C@@H](CC(C)C)C(N)=O` [HN-1] (H-TSPLNIHNGQKL-NH2; N-terminus and C-terminus assumed) here?
Its toxicity is “no histological evidence of organotoxicity; also recorded: nontoxic”.

And the immunogenicity ([2]; mouse, in vivo)?
The immunogenicity was “nonimmunogenic”.

And the “protection of cargo during transit” value ([2]; mouse, in vivo)?
Its value is “protects its “cargo” during transit; also recorded: protects its cargo during transit”.

And the stability in vivo ([2]; shown by detecting intact peptide in blood 24 h after injection)?
Its stability in vivo is “stable in vivo”.

For `O=NN(CCCl)C(=O)NC1CCCCC1` [Lomustine, 1-(2-chloro-ethyl)-3-cyclohexyl-1nitrosourea], which “tissue levels relative to plasma levels” value ([1]; in vivo, iv) is on record?
The value was “comparable”.

Which “dose excreted / detected intact in the urine” value ([1]; in vivo) does the source give for `CC[C@]1(O)C[C@@H]2CN(CCc3c([nH]c4ccccc34)[C@@](C(=O)OC)(c3cc4c(cc3OC)N(C)[C@H]3[C@@](O)(C(=O)OC)[C@H](OC(C)=O)[C@]5(CC)C=CCN6CC[C@]43[C@@H]65)C2)C1` [Vinblastine] here?
Its value is “Approximately 15%”.

And the “half-life of disappearance from plasma after distribution (first of two)” value ([1]; intravenous injection)?
Its value is “approximately 1 hours”.

And the “half-life of disappearance from plasma after distribution (second of two)” value ([1]; intravenous injection)?
The value was roughly 20 h.

With `CC[C@]1(O)C[C@H]2CN(CCc3c([nH]c4ccccc34)[C@@](C(=O)OC)(c3cc4c(cc3OC)N(C=O)[C@H]3[C@@](O)(C(=O)OC)[C@H](OC(C)=O)[C@]5(CC)C=CCN6CC[C@]43[C@@H]65)C2)C1` [Vincristine] as the molecule, how does the “terminal half-life of clearance from the plasma” value ([1]; multiphasic) read?
The value was “about 24 hours”.

Which “permeability of the dyes themselves” value [3] does the source give for `O=C1OC2(c3ccc(O)cc3Oc3cc(O)ccc32)c2ccccc21` [fluorescein] here?
The value was “impermeable”.

Which “concentrations in hematopoietic tissue / bone marrow” value [4] does the source give for Bleomycin here?
Its value is “low concentrations”.

What about the “concentrations in skin, lungs, kidneys, peritoneum and lymphatics” value [4] of the same molecule?
The value was “high concentrations”.
